This note sets out measurements from ChEMBL document CHEMBL2073811, “Uptake of the mycotoxin ochratoxin A in liver cells occurs via the cloned organic anion transporting polypeptide” (J Pharmacol Exp Ther, 1996).

Usually Km stands for the concentration of substrate that gives half-maximal velocity.

The target in data set [1] is T1, Solute carrier organic anion transporter family member 1A1 (Rattus norvegicus, UniProt P46720).
T1 sequence (P46720 whole entry): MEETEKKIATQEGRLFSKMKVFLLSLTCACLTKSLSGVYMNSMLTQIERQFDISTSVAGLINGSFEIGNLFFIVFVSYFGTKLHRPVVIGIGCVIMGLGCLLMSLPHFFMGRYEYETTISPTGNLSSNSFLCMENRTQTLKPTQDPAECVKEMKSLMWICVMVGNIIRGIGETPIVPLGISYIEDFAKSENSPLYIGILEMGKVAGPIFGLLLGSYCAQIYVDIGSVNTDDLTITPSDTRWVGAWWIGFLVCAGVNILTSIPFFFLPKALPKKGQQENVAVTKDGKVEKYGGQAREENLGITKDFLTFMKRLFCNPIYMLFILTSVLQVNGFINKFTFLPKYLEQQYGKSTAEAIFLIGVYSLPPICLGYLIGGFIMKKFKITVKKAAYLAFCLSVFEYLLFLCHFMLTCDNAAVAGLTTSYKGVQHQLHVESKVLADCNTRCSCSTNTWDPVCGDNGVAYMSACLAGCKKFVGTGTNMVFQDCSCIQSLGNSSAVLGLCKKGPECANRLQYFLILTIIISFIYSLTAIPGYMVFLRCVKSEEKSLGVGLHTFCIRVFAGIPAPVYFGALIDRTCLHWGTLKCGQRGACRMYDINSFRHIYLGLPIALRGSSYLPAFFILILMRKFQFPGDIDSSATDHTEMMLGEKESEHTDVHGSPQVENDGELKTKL
Briefly: TP_TRANSPORTER: inhibition of Ochratoxin A uptake (OTA: 1 uM, CRC-220: 100uM) in Xenopus laevis oocytes. The class given is functional, cell-based. The following applies: oocyte.

The target in data set [2] is T1, Solute carrier organic anion transporter family member 1A1. Nature of the data set: TP_TRANSPORTER: uptake in Xenopus laevis oocytes. The data set is classed as functional, cell-based, Oocyte. The following applies: Xenopus laevis oocytes expressing the transporter.
The target is the same in data set [3]. Nature of the data set: TP_TRANSPORTER: inhibition of Ochratoxin A uptake (OTA: 1 uM, E1S: 100uM) in Xenopus laevis oocytes. The class given is functional, cell-based. The following applies: oocyte.
Data set [4] has the same target. Briefly: TP_TRANSPORTER: inhibition of Ochratoxin A uptake (OTA: 1 uM, GC: 100uM) in Xenopus laevis oocytes. The class given is functional, cell-based. The following applies: oocyte.
Data set [5] has the same target. Briefly: TP_TRANSPORTER: inhibition of Ochratoxin A uptake (OTA: 1 uM, BSP: 100uM) in Xenopus laevis oocytes. The class given is functional, cell-based. The following applies: oocyte.

As to `COc1cc(C)c(S(=O)(=O)N[C@@H](CC(=O)O)C(=O)N[C@H](Cc2ccc(C(=N)N)cc2)C(=O)N2CCCCC2)c(C)c1C`, the Activity entry in data set [1] was “inhibitor [+]”. In the case of `C[C@@H]1Cc2c(Cl)cc(C(=O)N[C@@H](Cc3ccccc3)C(=O)O)c(O)c2C(=O)O1` [3R14S-OCHRATOXIN A], the Km in data set [2] is 16.6 µM. Take `C[C@]12CC[C@@H]3c4ccc(OS(=O)(=O)O)cc4CC[C@H]3[C@@H]1CCC2=O` [ESTRONE SULFURIC ACID]: the Activity entry in data set [3] is “inhibitor [+]”. Take `C[C@H](CCC(=O)NCC(=O)O)[C@H]1CC[C@H]2[C@@H]3[C@H](O)C[C@@H]4C[C@H](O)CC[C@]4(C)[C@H]3C[C@H](O)[C@]12C` [GLYCOCHOLIC ACID]: in data set [4], the Activity entry was “inhibitor [+]”. Consider `O=C1OC(c2ccc(O)c(S(=O)(=O)[O-])c2)(c2ccc(O)c(S(=O)(=O)[O-])c2)c2c(Br)c(Br)c(Br)c(Br)c21.[Na+].[Na+]` [SULFOBROMOPHTHALEIN SODIUM], for which, in data set [5], the Activity result was “inhibitor [+]”.
